Holding throughout (assay): NCI-60 cell line screen, 48 h
For test [1], the system named is MOLT-4 leukemia.
Test [2] deals with SNB-75 CNS.
The subject of test [3] is OVCAR-8 ovarian.
Test [4] relates to HOP-92 NSCLC.
Test [5] concerns 786-0 renal.
Test [6] deals with SK-MEL-28 melanoma.
Test [7] deals with KM20L2 colon.
Test [8] deals with IGROV1 ovarian.
For test [9], the system named is DU-145 prostate.

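Each compound was tested at five concentrations against cells in 96-well plates for 48 hours. GI50 = concentration required for 50% inhibition of growth. TGI marks complete inhibition of growth.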

Consider `CC(=O)[CH-]C(=O)c1ccccc1.CC(=O)[CH-]C(=O)c1ccccc1.CC(C)CCCC(C)[C@H]1CCC2[C@@H]3CC=C4C[C@@H]([O-])CC[C@]4(C)C3CC[C@@]21C.CC[O-].[Ti+4]` (some centres undefined), for which the GI50 in [1] is 16.4 µM; in test [2], 28.5 µM; in test [3] it was 46.3 µM; in [4], 33.8 µM; in [5] it was 35.2 µM; in test [6], 30.3 µM. Also, the GI50 in test [7] was 67.8 µM; in test [8], over 100 µM. For the same compound, the TGI in test [1] is 63.1 µM; in test [2], over 100 µM; in test [3] it was over 100 µM; in [4], 94 µM; in test [5], over 100 µM; in test [6] it was over 100 µM. Moreover, the TGI in test [7] and in test [8] was over 100 µM each time.

Regarding `c1ccc2[nH]c(-c3ccc(NN=Nc4ccncc4)cc3)nc2c1`, the GI50 in [1] is over 100 µM; in test [9] it was 47 µM; in test [2] it was over 100 µM; in test [3], 5.57 µM; in [4], 91.5 µM; in test [5] it was 99.9 µM. The results for the GI50 in test [6] and in [8] were 16.6 µM and over 100 µM, respectively. Further, the TGI in test [1], in test [9], in [2], in test [3], in test [4] and in test [5] was over 100 µM in each case. Besides, the TGI in test [6] was 51.6 µM; in [8] it was over 100 µM.

Take `COc1ccccc1CCN=C1NC(=O)/C(=C/c2ccc3ncccc3c2)S1`: the GI50 in [1] was 6.42 µM; in [9], 7.97 µM; in test [2] it was 3.71 µM; in test [3], 6.75 µM; in test [4], 6.02 µM; in test [5] it was 8.24 µM. For the same compound, the GI50 is 8.22 µM in test [6] and 4.87 µM in [8]. For the same compound, the TGI was 15.7 µM in [1]; over 25 µM in test [9]; over 19.2 µM in test [2]; over 25 µM in test [3]; 22.1 µM in test [4]; over 25 µM in test [5]. In addition, the values for the TGI in test [6] and in test [8] were over 25 µM and 19.6 µM, respectively.

`CC(=O)[CH-]C(=O)c1ccccc1.CC(=O)[CH-]C(=O)c1ccccc1.CC1(C)C2CCC1(C)C([O-])C2.CC1(C)C2CCC1(C)C([O-])C2.[Ti+4]`: the GI50 in test [1] was 34.8 µM; in test [3], 44.9 µM; in test [4], 12.9 µM; in [5], 25.9 µM; in test [6], 34.1 µM; in test [7] it was 60 µM. In addition, the GI50 in test [8] was 25.3 µM. The TGI in test [1] was over 100 µM; in test [3], over 100 µM; in [4], 34.9 µM; in test [5], over 100 µM; in [6] it was over 100 µM; in [7], over 100 µM. The compound further had a TGI in test [8] of 85.8 µM.

As for `CCn1c(CN2CCN(Cc3ccccc3)CC2)nc2cc(NC(=O)c3cccs3)ccc21`, the GI50 is 13.2 µM in test [1]; 32.1 µM in [9]; 12.4 µM in [2]; 20.1 µM in test [3]; 12.3 µM in [4]; 21.4 µM in test [5]. Besides, the GI50 in test [6] is 16 µM; in test [8], 26.5 µM. Further, the TGI in test [1] is 37.9 µM; in test [9], over 100 µM; in [2], 30.6 µM; in [3] it was 55.9 µM; in test [4], 40.3 µM; in test [5] it was 66.1 µM. Moreover, the TGI in test [6] came to 34.3 µM; in [8], 80.3 µM.

As for `COc1cc(-c2nn(-c3cccc(NC(=O)Nc4cc(C(F)(F)F)cc(C(F)(F)F)c4)c3)cc2-c2ccncc2)ccc1Cl`, the GI50 in test [1] was 1.08 µM; in test [9] it was 0.987 µM; in test [2] it was 0.961 µM; in test [3] it was 0.524 µM; in test [4] it was 0.107 µM; in [5] it was 0.892 µM. Moreover, the GI50 is 0.758 µM in [6] and 0.592 µM in test [8]. Besides, the TGI amounted to 4.48 µM in [1]; 5.59 µM in test [9]; 2.74 µM in test [2]; 3.98 µM in test [3]; 0.64 µM in test [4]; 1.82 µM in [5]. For the same compound, the results for the TGI in test [6] and in [8] were 1.94 µM and 2.34 µM, respectively.

For the compound `CC(C)[C@H](CO)Nc1nc(Nc2ccc(C(=O)NCCNS(=O)(=O)c3cccc4c(N(C)C)cccc34)c(Cl)c2)c2ncn(C(C)C)c2n1`, the GI50 in [1] is 3.51 µM; in [9] it was 4.41 µM; in test [2] it was 1.75 µM; in test [3], 3.18 µM; in [4], 2 µM; in test [5], 3.15 µM. For the same compound, the GI50 in test [6] is 2.9 µM; in test [8], 2.62 µM. The TGI in [1], in test [9], in test [2], in [3], in [4] and in test [5] was over 100 µM throughout. Further, the TGI in [6] is over 100 µM; in test [8], over 25.1 µM.

Take `CC(C)(O)CS(=O)(=O)Nc1ccc2c(c1)CCN(C(=O)COc1cccnc1)C2`: the GI50 in test [1] was over 100 µM; in test [9] it was 0.618 µM; in test [2], over 100 µM; in test [3], 0.0177 µM; in test [4] it was 97.5 µM; in [5] it was over 100 µM. For the same compound, the GI50 was over 100 µM in test [6] and over 84 µM in test [8]. The TGI in [1], in [9], in [2], in test [3], in test [4] and in test [5] was over 100 µM each time. Besides, the TGI in test [6] and in [8] was over 100 µM throughout.

In the case of `COc1c(OC)c(OC)c2c(c1OC)c(=O)c1ccccc1n2C`, the TGI in test [1], in [9], in [2], in test [3], in test [4] and in test [5] was over 100 µM in each case. Moreover, the TGI in test [6] and in test [8] was over 100 µM each time.

The values above are taken from PubChem BioAssay (NCI).
